The subject of assay [1] is Aβ-stimulated C6 cells. The assay is described as follows: Nitrite (NO) production in Aβ-stimulated C6 cells, Griess reaction. It counts as cell-based. To be noted: Aβ (1-42) 1 μg/mL, 24 hours; cannabinoid 10^−9 to 10^−6 M. As for the experimental part: (§1) The cannabinoids tested were CBG, CBC, and CBDV. The cannabinoids were isolated from cannabis plant material and purified. The cannabinoids were tested at a concentration of 10^−9 to 10^−6 M. The cannabinoids were dissolved in DMSO at the concentration of 10^−2M and then diluted in DMEM to their final concentration.
(§2) Glial cells (C6) were cultured in 10% FBS supplemented DMEM. PC12 neuronal cell were cultured in 10% FBS plus 5% HS supplemented DMEM and SHY-5SY neuronal cells were cultured in 10% FBS supplemented RPMI. Neuronal cells were differentiated with retinoic acid. After 24 hours of starvation glial cells, differentiated PC12 and SHY-5SY neuronal cells were treated with the cannabinoids, CBC, CBG and CBDV, in the presence or absence of 1 μg/mL of Aβ (1-42) for the following 24 hours.
Production of NO was assayed by measuring the amount of nitrite in the culture medium of C6 cells 24 hours after Aβ(1-42) (1 μg/mL) stimulation using a spectrophotometric assay based on Griess reaction.
Background: Nitrite, measured by Griess reagent, commonly stands in for NO production.

In assay [2] the test system is Aβ-stimulated C6 cells. The assay is described as follows: Aβ-stimulated C6 cell viability/proliferation, MTT assay. It counts as cell-based. The following applies: Aβ (1-42) 1 μg/mL, 24 hours. As for the experimental part:
as §1, §2
(§3) Cell viability was determined using 3(4,5-dimethylthiazol-2yl)2,5-diphenyl-2H-tetrazolium bromide (MTT) assay which is an assay based on the ability of viable cells to convert MTT in formazan salt.
(§4) The cells were plated in 96-well culture plates at the density of 5×10^3 cells/well and allowed to adhere at 37° C. for 2 hours. Thereafter, the medium was replaced with fresh medium and the cells were treated as above described. After 24 hours 25 μl MTT (5 mg/ml in DMEM) was added to the cells and incubated for additional 3 hours at 37° C. After this time, the cells were lysed and the dark blue crystals solubilized with 125 μl of a solution containing 50% (v/v) N,N, dimethylformamide, 20% (w/v) sodium dodecylsulphate, with an adjusted pH of 4.5. The optical density of each well was measured with a microplate spectrophotometer (Titertek Multiscan MCC/340) equipped with a 620 nm filter.
Background: Tetrazolium assays rely on reduction of a dye to a coloured formazan, in cell work by metabolically active cells.

Assay [3] deals with SH-SY5Y cells. Kind of assay: Aβ-induced SH-SY5Y cell viability, MTT assay (Example 1). To be noted: Aβ (1-42) 1 μg/mL. It counts as cell-based, human. As for the experimental part:
as §1, §2, §3, §4

Assay [4] concerns SH-SY5Y cells. The assay is described as follows: Aβ-induced SH-SY5Y cell viability, MTT/formazan test (Example 2). It counts as cell-based, human. The following applies: Aβ (1-42) 1 μg/mL, 24 hours; 10^−7 M. As for the experimental part:
(§5) Glial cells (C6) were cultured in 10% FBS supplemented DMEM, and SHY-5SY were cultured in 10% FBS supplemented RPMI. Neuronal cells were differentiated with retinoic acid. After 24 hours of starvation glial cells and SHY-5SY were treated with CBDV (10^−7M), CBD (10^−7 M), CBDVA (10^−7 M), CBDA (10^−7 M) and THCVA (10^−7 M) in presence or absence of Aβ (1-42) (1 μg/mL) for following 24 hours.
as §4, with “Cell activation/viability was determined using 3(4,5-dimethylthiazol-2yl)2,5-diphenyl-2H-tetrazolium bromide (MTT) assay, an assay based on the ability of viable cells to convert MTT in formazan salt. Briefly, the cells” for “The cells”

Assay [5] relates to SH-SY5Y cells. The assay is described as follows: Aβ-induced SH-SY5Y viable cell number, cell counting by TC10 System. The format is cell-based, human. To be noted: Aβ (1-42) 1 μg/mL, 24 hours; 10^−7 M. As for the experimental part: as §5
In another set of experiments cell counting was performed by TC10 System (BIO-RAD), according to manufacturing instruction.

Assay [6] deals with neuronal cultures exposed to glutamate. To be noted: in vitro, pure/synthetic preparations; cited from earlier work.
For assay [7] the following is noted: in vivo, pure CBD; cited from earlier work.
For assay [8], the system named is iNOS. The assay is described as follows: iNOS mRNA level in Aβ-stimulated C6 cells, semi-quantitative RT-PCR. The format is cell-based. The following applies: Aβ (1-42) 1 μg/mL, 24 hours; 10^−7 M. As for the experimental part: as §2
The mRNA level of iNOS in C6 cells was determined using the semi-quantitative RT-PCR method. The PCR-primers were selected according to appropriate DNA sequences. 15 μl aliquots of PCR products were electrophoretically fractionated through 1% agarose gel containing the fluorescent Vistra green dye. Labelling intensity of the PCR product, which is linear to the amount of DNA, was quantified using the Molecular Imager FX and Quantity One software (Biorad, Milan, Italy).

Assay [9] has as its system TNF-alpha. Kind of assay: TNF-alpha protein expression in Aβ-stimulated C6 cells, western blot. It counts as cell-based. To be noted: Aβ (1-42) 1 μg/mL, 24 hours, 10^−7 M. Here is the method:
as §5
(§6) Western blot analysis was performed on C6 and SHY-5SY cell lysate. Briefly cells were rapidly homogenized in 60 μl of ice-cold hypotonic lysis buffer [10 mM HEPES, 1.5 mM MgCl2, 10 mM KCl, 0.5 mM phenylmethylsulfonyl fluoride, 1.5 μg/mL soybean trypsin inhibitor, pepstatin A 7 μg/mL, leupeptin 5 μg/mL, 0.1 mM benzamidine, 0.5 mM dithiothreitol (DTT)]. After this time, the cytoplasmic fractions were then obtained by centrifugation at 13000 g for 10 min and protein concentration in the samples was determined with Bio-Rad assay kit according to the manufacturer's instructions. Immunoblotting analysis of iNOS, COX-2, TNF-a, Bcl2 and actin were performed on a cytosolic fraction. Protein concentration was determined and equivalent amounts (50 μg) of each sample were separated under reducing conditions in 12% SDS-polyacrylamide minigel. […] The protein bands were scanned and densitometrically analyzed with a GS-800 imaging densitometer (Bio-Rad Laboratories, Calif., USA).

The subject of a further assay is COX2. Kind of assay: COX2 protein expression in Aβ-stimulated C6 cells, western blot. It counts as cell-based. The following applies: Aβ (1-42) 1 μg/mL, 24 hours, 10^−7 M. As for the experimental part:
as §5, §6

Assay [10] concerns iNOS. The assay is described as follows: iNOS protein expression in Aβ-stimulated C6 cells, western blot. It counts as cell-based. The following applies: Aβ (1-42) 1 μg/mL, 24 hours, 10^−7 M. As for the experimental part:
as §5, §6

Assay [11] relates to TNF-alpha. The assay is described as follows: TNF-alpha release in supernatant of Aβ-treated C6 cells, ELISA. The format is cell-based. The following applies: Aβ (1-42) 1 μg/mL, 24 hours, 10^−7 M. As for the experimental part:
as §5
ELISA essay was performed on supernatants of cultured cells. Nunc Maxisorp 96-well microtiter plates (Gibco, Paisley, UK) were coated overnight at 4° C. with 1 μg/well of specific monoclonal antibody anti-TNF, diluted in 0.5 M Na2CO3. The wells were washed three times and then blocked with phosphate-buffered saline (PBS) containing 0.05% (v/v) Tween 20 and 0.3% Fetal Bovine Serum (ELISA buffer) for 30 min at room temperature. The standards and samples were added in a 100-μl volume and incubated at 37° C. for 1.5 h. The standard curve was generated using 0.1 ng to 1 μg/well of purified protein, diluted in ELISA buffer. Following four washes in ELISA buffer, monoclonal antibodies were diluted and added to the wells for 1 h. […] The colour reaction was stopped by addition of HCl and optical densities at 490 nm were measured using a microplate reader.
(In an ELISA, binding on a coated surface is turned into a signal by an enzyme label.)

A further assay deals with Bcl2. The assay is described as follows: Bcl2 protein expression in Aβ-treated SH-SY5Y cells, western blot. The following applies: Aβ (1-42) 1 μg/mL, 24 hours, 10^−7 M. The format is cell-based, human. Here is the method: as §5, §6

For the compound `CCCCCc1cc(O)c2c(c1)OC(C)(CCC=C(C)C)C=C2` (stereo not shown) [CBC, cannabichromene], the “nitrite production in Aβ-stimulated C6 cells” value (“nitrite production” below) in the assay with Aβ-stimulated C6 cells [1] is reported as “significantly reduced”. Moreover, in the assay with Aβ-stimulated C6 cells [2] (10^−7 to 10^−6 M), the “Aβ-stimulated C6 cell viability (cell proliferation, MTT)” value (from here on “Aβ-stimulated C6 cell viability”) was “significantly inhibited cell proliferation”. In addition, the “Aβ-induced SH-SY5Y cell death (cell viability, MTT)” value (“Aβ-induced SH-SY5Y cell death” below) in the assay on SH-SY5Y cells [3] (10^−6 M (highest concentration used)) is “effective only at the highest concentration used”.
In the case of `C=C(C)[C@@H]1CCC(C)=C[C@H]1c1c(O)cc(CCCCC)cc1O` [CBD, cannabidiol], in the assay with SH-SY5Y cells [4], the “Aβ SH-SY5Y cell death (viability, MTT/formazan test)” value is recorded as “able to prevent”. Further, the “Aβ induced SH-SY5Y cell death (viable cell number, cell counting)” value (“Aβ induced SH-SY5Y cell death” for short) in the assay on SH-SY5Y cells [5] was “able to prevent”. Moreover, in assay [6], the “prevention of glutamate toxicity” value is given as “could be prevented to some extent”. Besides, the “difference between treated and placebo treated animals” value in [7] is “failed to find a difference”.
On to `C=C(C)[C@@H]1CCC(C)=C[C@H]1c1c(O)cc(CCCCC)c(C(=O)O)c1O` [CBDA], for which the “Aβ SH-SY5Y cell death (viability, MTT/formazan test)” value in the assay on SH-SY5Y cells [4] is reported as “had no effect”. Also, the “Aβ induced SH-SY5Y cell death” value in the assay on SH-SY5Y cells [5] was “No significant effect”.
For the compound `C=C(C)[C@@H]1CCC(C)=C[C@H]1c1c(O)cc(CCC)cc1O` [CBDV, cannabidivarin], the “nitrite production” value with Aβ-stimulated C6 cells [1] is “significantly reduced”. Besides, the “Aβ-stimulated C6 cell viability” value with Aβ-stimulated C6 cells [2] (10^−8 to 10^−6 M) is recorded as “significantly inhibited cell proliferation”. In addition, the “iNOS mRNA transcription in Aβ-stimulated C6 cells” value in the assay with iNOS [8] is reported as “significant reduction of mRNA transcription”. Moreover, the “Aβ-induced SH-SY5Y cell death” value in the assay on SH-SY5Y cells [3] (10^−9 to 10^−6 M) is given as “able to prevent”. For the same compound, in the assay with TNF-alpha [9], the TNF-alpha protein expression entry was “significant reduction”. For the same compound, the COX2 protein expression entry with COX2 is “significant reduction”. Moreover, the iNOS protein expression entry in the assay on iNOS [10] is listed as “significant reduction”. Also, the “TNF-alpha release in the supernatant of cells” value in the assay with TNF-alpha [11] is “significantly reduced”. Besides, the Bcl2 protein expression result in the assay on Bcl2 is “significantly restored”. Besides, the “Aβ SH-SY5Y cell death (viability, MTT/formazan test)” value in the assay with SH-SY5Y cells [4] was “able to prevent”. In addition, in the assay on SH-SY5Y cells [5], the “Aβ induced SH-SY5Y cell death” value is “able to prevent”.
For the compound `C=C(C)[C@@H]1CCC(C)=C[C@H]1c1c(O)cc(CCC)c(C(=O)O)c1O` [CBDVA, cannabidivarin acid], in the assay with SH-SY5Y cells [4], the “Aβ SH-SY5Y cell death (viability, MTT/formazan test)” value is on record as “able to prevent”. In addition, in the assay with SH-SY5Y cells [5], the “Aβ induced SH-SY5Y cell death” value was “able to prevent”.
Consider `CCCCCc1cc(O)c(C/C=C(\C)CCC=C(C)C)c(O)c1` [CBG, cannabigerol, reference compound], for which, in the assay on Aβ-stimulated C6 cells [1], the “nitrite production” value is “had no effect”. Besides, the “Aβ-stimulated C6 cell viability” value in the assay with Aβ-stimulated C6 cells [2] (10^−9 to 10^−6 M) is “had no effect”. In the assay with SH-SY5Y cells [3] (10^−9 to 10^−6 M), the “Aβ-induced SH-SY5Y cell death” value is “had no effect”.
As to `CCCCCc1cc(O)c2c(c1)OC(C)(C)[C@@H]1CCC(C)=C[C@@H]21` [THC, tetrahydrocannabinol], in [6], the “prevention of glutamate toxicity” value is reported as “could be prevented to some extent”.
Turning to `CCCc1cc2c(c(O)c1C(=O)O)[C@@H]1C=C(C)CC[C@H]1C(C)(C)O2` [THCVA], the “Aβ SH-SY5Y cell death (viability, MTT/formazan test)” value in the assay on SH-SY5Y cells [4] was “had no effect”. Also, the “Aβ induced SH-SY5Y cell death” value with SH-SY5Y cells [5] is “No significant effect”.

The record behind these values is patent publication US10258580B2, “Cannabinoids for use in the treatment of neurodegenerative diseases or disorders” (priority 2011, dated 2019).
